# From ChEMBL document CHEMBL3885881, “DrugMatrix”
# Species: Rattus norvegicus
# Assay: DrugMatrix - Regimen: Daily Repeat
# Format: toxicity, organism-based, Sprague-Dawley
# Parameters: regimen Daily Repeat, gender Male, age 6-8 weeks
# Conditions: in vivo, po, route oral GAVAGE, […]; for ABSOLUTE BASOPHIL / BASOPHIL / ABSOLUTE EOSINOPHIL / ABSOLUTE LYMPHOCYTE / ABSOLUTE MONOCYTE / ABSOLUTE SEGMENTED NEUTROPHIL / EOSINOPHIL / ERYTHROCYTE COUNT / HEMATOCRIT / HEMOGLOBIN / LEUKOCYTE COUNT / LYMPHOCYTE / MEAN CORPUSCULAR HEMOGLOBIN / MEAN CORPUSCULAR HEMOGLOBIN CONCENTRATION / MEAN CORPUSCULAR VOLUME / MONOCYTE / NEUTROPHIL / NUCLEATED RED BLOOD CELLS / PLATELET COUNT: tissue Blood; for ALANINE AMINOTRANSFERASE / ALBUMIN / ALKALINE PHOSPHATASE / ASPARTATE AMINOTRANSFERASE / BLOOD UREA NITROGEN / CARBON DIOXIDE / CHLORIDE / CHOLESTEROL / CREATINE PHOSPHOKINASE / CREATININE / GLUCOSE / LACTATE DEHYDROGENASE / LIPASE / PHOSPHORUS / POTASSIUM / SODIUM / TOTAL BILIRUBIN / TOTAL PROTEIN / URIC ACID: tissue Plasma
# [1] = 0 mg/kg, 72 h, dose level Control, time 3 day
# [2] = 0 mg/kg, 120 h, dose level Control, time 5 day
# [3] = 4 mg/kg, 72 h, dose level Low, time 3 day
# [4] = 4 mg/kg, 120 h, dose level Low, time 5 day
# [5] = 16 mg/kg, 72 h, dose level High, time 3 day
# [6] = 16 mg/kg, 120 h, dose level High, time 5 day
smiles,measurement,setting,value
O=NN(CCCl)C(=O)NCCCl [CARMUSTINE],ABSOLUTE BASOPHIL,[1],0 CELLS/uL
same,BASOPHIL,[1],0%
same,ABSOLUTE BASOPHIL,[2],0 CELLS/uL
same,ABSOLUTE EOSINOPHIL,[2],0 CELLS/uL
same,ABSOLUTE LYMPHOCYTE,[2],10431 CELLS/uL
same,ABSOLUTE MONOCYTE,[2],90.5 CELLS/uL
same,ABSOLUTE SEGMENTED NEUTROPHIL,[2],1111.83 CELLS/uL
same,BASOPHIL,[2],0%
same,EOSINOPHIL,[2],0%
same,ERYTHROCYTE COUNT,[2],5.51 x10E6/uL
same,HEMATOCRIT,[2],34.67%
same,HEMOGLOBIN,[2],13.5 G/DL
same,LEUKOCYTE COUNT,[2],11.63 x10E3/uL
same,LYMPHOCYTE,[2],89.67%
same,MEAN CORPUSCULAR HEMOGLOBIN,[2],24.5 pg
same,MEAN CORPUSCULAR HEMOGLOBIN CONCENTRATION,[2],38.95 G/DL
same,MEAN CORPUSCULAR VOLUME,[2],62.87 fL
same,MONOCYTE,[2],0.67%
same,NEUTROPHIL,[2],9.67%
same,NUCLEATED RED BLOOD CELLS,[2],0 /100WBC
same,PLATELET COUNT,[2],1052.67 x10E3/uL
same,ALANINE AMINOTRANSFERASE,[2],54.67 u/L
same,ALBUMIN,[2],4.15 G/DL
same,ALKALINE PHOSPHATASE,[2],359.83 u/L
same,ASPARTATE AMINOTRANSFERASE,[2],83 u/L
same,BLOOD UREA NITROGEN,[2],13.5 mg/dL
same,CARBON DIOXIDE,[2],27.17 mmol/L
same,CHLORIDE,[2],98.5 MEQ/L
same,CHOLESTEROL,[2],66.83 mg/dL
same,CREATINE PHOSPHOKINASE,[2],256.17 u/L
same,CREATININE,[2],0.19 mg/dL
same,GLUCOSE,[2],171.33 mg/dL
same,LACTATE DEHYDROGENASE,[2],91.5 u/L
same,LIPASE,[2],10.5 u/L
same,PHOSPHORUS,[2],8.72 mg/dL
same,POTASSIUM,[2],5.34 MEQ/L
same,SODIUM,[2],142.53 MEQ/L
same,TOTAL BILIRUBIN,[2],0.2 mg/dL
same,TOTAL PROTEIN,[2],6.05 G/DL
same,URIC ACID,[2],0.6 mg/dL
same,ABSOLUTE BASOPHIL,[3],0 CELLS/uL
same,ABSOLUTE EOSINOPHIL,[3],0 CELLS/uL
same,ABSOLUTE LYMPHOCYTE,[3],4876.33 CELLS/uL
same,ABSOLUTE MONOCYTE,[3],48 CELLS/uL
same,ABSOLUTE SEGMENTED NEUTROPHIL,[3],442.33 CELLS/uL
same,BASOPHIL,[3],0%
same,EOSINOPHIL,[3],0%
same,ERYTHROCYTE COUNT,[3],5.3 x10E6/uL
same,HEMATOCRIT,[3],33.47%
same,HEMOGLOBIN,[3],13.1 G/DL
same,LEUKOCYTE COUNT,[3],5.37 x10E3/uL
same,LYMPHOCYTE,[3],90.67%
same,MEAN CORPUSCULAR HEMOGLOBIN,[3],24.7 pg
same,MEAN CORPUSCULAR HEMOGLOBIN CONCENTRATION,[3],39.13 G/DL
same,MEAN CORPUSCULAR VOLUME,[3],63.13 fL
same,MONOCYTE,[3],1%
same,NEUTROPHIL,[3],8.33%
same,NUCLEATED RED BLOOD CELLS,[3],0 /100WBC
same,PLATELET COUNT,[3],1176.67 x10E3/uL
same,ALANINE AMINOTRANSFERASE,[3],69.33 u/L
same,ALBUMIN,[3],4.2 G/DL
same,ALKALINE PHOSPHATASE,[3],310 u/L
same,ASPARTATE AMINOTRANSFERASE,[3],124.67 u/L
same,BLOOD UREA NITROGEN,[3],8.33 mg/dL
same,CARBON DIOXIDE,[3],31.67 mmol/L
same,CHLORIDE,[3],102 MEQ/L
same,CHOLESTEROL,[3],70 mg/dL
same,CREATINE PHOSPHOKINASE,[3],196 u/L
same,CREATININE,[3],0.11 mg/dL
same,GLUCOSE,[3],149.33 mg/dL
same,LACTATE DEHYDROGENASE,[3],75.67 u/L
same,LIPASE,[3],45 u/L
same,PHOSPHORUS,[3],9.8 mg/dL
same,POTASSIUM,[3],5.86 MEQ/L
same,SODIUM,[3],147.15 MEQ/L
same,TOTAL BILIRUBIN,[3],0.2 mg/dL
same,TOTAL PROTEIN,[3],5.6 G/DL
same,URIC ACID,[3],0.47 mg/dL
same,ABSOLUTE BASOPHIL,[4],0 CELLS/uL
same,ABSOLUTE EOSINOPHIL,[4],0 CELLS/uL
same,ABSOLUTE LYMPHOCYTE,[4],3763.67 CELLS/uL
same,ABSOLUTE MONOCYTE,[4],27 CELLS/uL
same,ABSOLUTE SEGMENTED NEUTROPHIL,[4],142.67 CELLS/uL
same,BASOPHIL,[4],0%
same,EOSINOPHIL,[4],0%
same,ERYTHROCYTE COUNT,[4],5.76 x10E6/uL
same,HEMATOCRIT,[4],35.3%
same,HEMOGLOBIN,[4],13.53 G/DL
same,LEUKOCYTE COUNT,[4],3.93 x10E3/uL
same,LYMPHOCYTE,[4],95.67%
same,MEAN CORPUSCULAR HEMOGLOBIN,[4],23.5 pg
same,MEAN CORPUSCULAR HEMOGLOBIN CONCENTRATION,[4],38.33 G/DL
same,MEAN CORPUSCULAR VOLUME,[4],61.27 fL
same,MONOCYTE,[4],0.67%
same,NEUTROPHIL,[4],3.67%
same,NUCLEATED RED BLOOD CELLS,[4],0 /100WBC
same,PLATELET COUNT,[4],1079.33 x10E3/uL
same,ALANINE AMINOTRANSFERASE,[4],65 u/L
same,ALBUMIN,[4],4.4 G/DL
same,ALKALINE PHOSPHATASE,[4],287.67 u/L
same,ASPARTATE AMINOTRANSFERASE,[4],91.67 u/L
same,BLOOD UREA NITROGEN,[4],10 mg/dL
same,CARBON DIOXIDE,[4],27.67 mmol/L
same,CHLORIDE,[4],101.33 MEQ/L
same,CHOLESTEROL,[4],66.67 mg/dL
same,CREATINE PHOSPHOKINASE,[4],256.67 u/L
same,CREATININE,[4],0.22 mg/dL
same,GLUCOSE,[4],159.33 mg/dL
same,LACTATE DEHYDROGENASE,[4],67.33 u/L
same,LIPASE,[4],10.67 u/L
same,PHOSPHORUS,[4],8.57 mg/dL
same,POTASSIUM,[4],5.14 MEQ/L
same,SODIUM,[4],148.03 MEQ/L
same,TOTAL BILIRUBIN,[4],0.13 mg/dL
same,TOTAL PROTEIN,[4],6.3 G/DL
same,URIC ACID,[4],0.57 mg/dL
same,ABSOLUTE BASOPHIL,[5],0 CELLS/uL
same,ABSOLUTE EOSINOPHIL,[5],0 CELLS/uL
same,BASOPHIL,[5],0%
same,EOSINOPHIL,[5],0%
same,TOTAL PROTEIN,[5],11.13 G/DL
same,ABSOLUTE BASOPHIL,[6],0 CELLS/uL
same,ABSOLUTE EOSINOPHIL,[6],9 CELLS/uL
same,ABSOLUTE LYMPHOCYTE,[6],2345.67 CELLS/uL
same,ABSOLUTE MONOCYTE,[6],24.67 CELLS/uL
same,ABSOLUTE SEGMENTED NEUTROPHIL,[6],87.33 CELLS/uL
same,BASOPHIL,[6],0%
same,EOSINOPHIL,[6],0.33%
same,ERYTHROCYTE COUNT,[6],6.17 x10E6/uL
same,HEMATOCRIT,[6],38.6%
same,HEMOGLOBIN,[6],14.23 G/DL
same,LEUKOCYTE COUNT,[6],2.47 x10E3/uL
same,LYMPHOCYTE,[6],95%
same,MEAN CORPUSCULAR HEMOGLOBIN,[6],23.1 pg
same,MEAN CORPUSCULAR HEMOGLOBIN CONCENTRATION,[6],36.93 G/DL
same,MEAN CORPUSCULAR VOLUME,[6],62.57 fL
same,MONOCYTE,[6],1%
same,NEUTROPHIL,[6],3.67%
same,NUCLEATED RED BLOOD CELLS,[6],0 /100WBC
same,PLATELET COUNT,[6],1131 x10E3/uL
same,ALANINE AMINOTRANSFERASE,[6],102 u/L
same,ALBUMIN,[6],3.93 G/DL
same,ALKALINE PHOSPHATASE,[6],370.33 u/L
same,ASPARTATE AMINOTRANSFERASE,[6],322 u/L
same,BLOOD UREA NITROGEN,[6],8.33 mg/dL
same,CARBON DIOXIDE,[6],27.67 mmol/L
same,CHLORIDE,[6],98 MEQ/L
same,CHOLESTEROL,[6],235 mg/dL
same,CREATINE PHOSPHOKINASE,[6],236.67 u/L
same,CREATININE,[6],0.21 mg/dL
same,GLUCOSE,[6],146 mg/dL
same,LACTATE DEHYDROGENASE,[6],165.33 u/L
same,LIPASE,[6],12 u/L
same,PHOSPHORUS,[6],9.6 mg/dL
same,POTASSIUM,[6],5.3 MEQ/L
same,SODIUM,[6],146.6 MEQ/L
same,TOTAL BILIRUBIN,[6],1.73 mg/dL
same,TOTAL PROTEIN,[6],6.4 G/DL
same,URIC ACID,[6],0.6 mg/dL
